Laboratory results: publication PMC7664879, “Discovery of 12O—A Novel Oral Multi-Kinase Inhibitor for the Treatment of Solid Tumor” (Molecules, 2020)

What was measured:
SKOV3 = assay: CCK-8 cell growth inhibition, SKOV3; format: cell-based, human; details: Homo sapiens, SK-OV-3; CCK-8 assay, 72-h incubation; read-out: Cell Lines IC50 SKOV3
Description: (§1) In vitro anticancer screening of all newly synthesized compounds towards human solid tumor cells, cervical (SiHa) and ovarian (SKOV3) cancer cell lines, was carried out by standard CCK-8 assay with cisplatin as the positive control, as cisplatin is one of the most used chemotherapy drugs. […] The compound was further evaluated in a dose response study against a panel of solid tumor cells, including cervical cancer cell lines (SiHa and HeLa), ovarian cancer cell lines (SKOV3 and OVCAR-5), breast cancer cell lines (4T1 and MCF-7), lung cancer cell lines (A549 and H460) to test cytotoxic activity. The IC50 values were summarized in Table 2, including the cytotoxic activity of the cisplatin used as reference compound.
(§2) The viability of cells as determined using the CCK8 assay method. Cells were seeded (2000–3000 cells per well) in 96-well plates. After incubation for 24 h in serum-containing media, the cells were treated with drugs at different concentrations diluted with culture medium for 72 h at 37 °C with a 5% CO2 atmosphere. Then, 10 μL CCK8 regent (Promega, WI) was added to each well, and the plates were incubated for 1–4 h at 37 °C. Finally, absorbance values of test wells (AS), control wells (AC) and blank wells (Ab) at 450 nm were read using the Microplate Reader (Promega, WI). Inhibition ratios were calculated as follows: [(AC − AS)/ (AC−Ab)] × 100%. IC50 values were calculated using GraphPad software.

HeLa = assay: CCK-8 cell growth inhibition, HeLa; format: cell-based, human; details: Homo sapiens, HeLa; cervical cancer; CCK-8 assay, 72-h incubation
Description: as §1
as §2, with “Then, 10 μL CCK8 regent (Promega, WI) was added to each well, and the plates were incubated for 1–4 h at 37 °C.” left out

4T1 = assay: CCK-8 cell growth inhibition, 4T1; format: cell-based; details: Mus musculus, 4T1; breast cancer; CCK-8 assay, 72-h incubation
Description: as §1
as §2, with “Then, 10 μL CCK8 regent (Promega, WI) was added to each well, and the plates were incubated for 1–4 h at 37 °C.” left out

Abl(h) = target: T1, Abl(h) (Homo sapiens, UniProt P00519); assay: Kinase inhibition assay (Eurofins KinaseProfiler); format: biochemical; details: ATP at Km
T1 construct: purchased Eurofins (KinaseProfiler service)
T1 sequence (P00519 whole entry): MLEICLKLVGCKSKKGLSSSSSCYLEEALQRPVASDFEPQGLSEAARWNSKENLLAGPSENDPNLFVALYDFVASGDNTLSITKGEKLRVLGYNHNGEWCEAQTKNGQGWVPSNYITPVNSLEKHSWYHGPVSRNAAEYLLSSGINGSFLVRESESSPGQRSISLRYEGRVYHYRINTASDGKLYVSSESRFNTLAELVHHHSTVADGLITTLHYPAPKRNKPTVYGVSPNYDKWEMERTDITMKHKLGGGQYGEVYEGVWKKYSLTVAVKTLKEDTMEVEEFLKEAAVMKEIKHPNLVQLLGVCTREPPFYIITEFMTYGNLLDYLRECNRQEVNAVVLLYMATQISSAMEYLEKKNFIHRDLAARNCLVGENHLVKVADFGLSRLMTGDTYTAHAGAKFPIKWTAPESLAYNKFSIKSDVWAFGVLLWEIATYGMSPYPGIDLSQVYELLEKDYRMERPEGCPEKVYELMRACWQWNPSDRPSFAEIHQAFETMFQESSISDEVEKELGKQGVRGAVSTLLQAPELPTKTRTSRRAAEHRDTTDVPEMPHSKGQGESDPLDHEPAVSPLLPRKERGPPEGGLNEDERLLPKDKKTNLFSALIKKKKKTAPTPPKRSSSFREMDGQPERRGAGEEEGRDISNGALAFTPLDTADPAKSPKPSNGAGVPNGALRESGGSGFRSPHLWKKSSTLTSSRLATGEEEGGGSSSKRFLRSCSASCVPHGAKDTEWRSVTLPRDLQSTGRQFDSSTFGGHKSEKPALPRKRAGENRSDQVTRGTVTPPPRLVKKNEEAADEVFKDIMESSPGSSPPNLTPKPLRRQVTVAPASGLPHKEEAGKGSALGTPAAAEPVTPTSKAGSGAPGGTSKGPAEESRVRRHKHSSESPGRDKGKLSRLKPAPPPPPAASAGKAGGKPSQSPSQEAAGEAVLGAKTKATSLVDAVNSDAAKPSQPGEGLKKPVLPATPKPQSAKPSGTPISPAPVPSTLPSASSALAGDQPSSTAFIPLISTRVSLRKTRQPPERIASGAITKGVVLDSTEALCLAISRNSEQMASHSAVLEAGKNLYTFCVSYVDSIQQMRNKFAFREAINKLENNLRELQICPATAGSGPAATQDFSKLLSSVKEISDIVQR
Description: (§3) Kinase inhibition profiles were determined using KinaseProfiler services provided by Eurofins, and ATP concentrations used are the Km of corresponding kinases.
(§4) Flt1 (h) was incubated with 8 mM MOPS pH 7.0, 0.2 mM EDTA, 250 uM KKKSPGEYVNIEFG, 10 mM MgAcetate and [g- 33P]-ATP; Flt3 (h) [Abl (h)] was incubated with 8 mM MOPS pH 7.0, 0.2 mM EDTA, 50 uM EAIYAAPFAKKK, 10 mM MgAcetate and [gamma-33P]- ATP; Flt4 (h) was incubated with 8 mM MOPS pH 7.0, 0.2 mM EDTA, 500 uM GGEEEEYFELVKKKK, 10 mM MgAcetate and [gamma-33P]-ATP.
(§5) All the reactions above were initiated by the addition of the Mg/ATP mix. After incubation for 40 min at room temperature, the reaction was stopped by the addition of phosphoric acid to a concentration of 0.5%. An amount of 10 µL of the reaction was then spotted onto a P30 filtermat and washed four times for 4 min in 0.425% phosphoric acid and once in methanol prior to drying and scintillation counting.

FLT1 (VEGFR1) = target: T2, FLT1 (VEGFR1) (Homo sapiens, UniProt P17948); assay: Kinase inhibition assay (Eurofins KinaseProfiler); format: biochemical; details: ATP at Km
T2 construct: purchased Eurofins (KinaseProfiler service)
T2 sequence (P17948 27-1338): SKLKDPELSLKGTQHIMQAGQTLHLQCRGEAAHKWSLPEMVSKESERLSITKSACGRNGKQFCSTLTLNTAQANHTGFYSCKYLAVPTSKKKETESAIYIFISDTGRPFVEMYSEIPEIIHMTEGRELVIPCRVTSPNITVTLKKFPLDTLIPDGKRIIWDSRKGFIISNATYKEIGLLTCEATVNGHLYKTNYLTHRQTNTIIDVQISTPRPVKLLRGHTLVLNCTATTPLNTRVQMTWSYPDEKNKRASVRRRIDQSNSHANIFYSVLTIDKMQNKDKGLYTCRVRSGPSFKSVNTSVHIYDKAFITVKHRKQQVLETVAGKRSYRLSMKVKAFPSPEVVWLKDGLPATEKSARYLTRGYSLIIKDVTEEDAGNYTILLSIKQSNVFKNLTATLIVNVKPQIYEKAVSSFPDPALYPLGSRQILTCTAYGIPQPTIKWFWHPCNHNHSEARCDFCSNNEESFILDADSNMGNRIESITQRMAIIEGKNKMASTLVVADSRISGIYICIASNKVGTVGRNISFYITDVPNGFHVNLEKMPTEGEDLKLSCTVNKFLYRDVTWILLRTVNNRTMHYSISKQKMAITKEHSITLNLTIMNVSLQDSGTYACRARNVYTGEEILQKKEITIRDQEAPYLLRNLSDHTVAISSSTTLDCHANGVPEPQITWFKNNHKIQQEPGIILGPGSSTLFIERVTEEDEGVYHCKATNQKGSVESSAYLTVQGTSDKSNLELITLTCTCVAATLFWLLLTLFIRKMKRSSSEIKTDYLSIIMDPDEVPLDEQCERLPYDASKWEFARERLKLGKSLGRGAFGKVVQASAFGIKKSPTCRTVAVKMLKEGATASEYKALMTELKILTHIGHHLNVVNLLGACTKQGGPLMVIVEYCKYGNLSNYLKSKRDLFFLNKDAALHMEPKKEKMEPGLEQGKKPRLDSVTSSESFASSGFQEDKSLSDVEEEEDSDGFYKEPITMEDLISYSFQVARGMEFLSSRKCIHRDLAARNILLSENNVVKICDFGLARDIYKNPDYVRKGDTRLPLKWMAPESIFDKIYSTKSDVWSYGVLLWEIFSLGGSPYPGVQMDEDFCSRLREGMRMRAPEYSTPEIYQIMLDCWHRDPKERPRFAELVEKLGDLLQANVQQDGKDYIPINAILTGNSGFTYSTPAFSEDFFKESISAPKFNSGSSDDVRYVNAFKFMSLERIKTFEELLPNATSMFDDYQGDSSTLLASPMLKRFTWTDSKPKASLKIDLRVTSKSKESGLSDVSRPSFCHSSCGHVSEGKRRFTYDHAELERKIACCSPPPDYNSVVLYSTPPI
Description: as §3, §4, §5

FLT3(h) = target: T3, FLT3(h) (Homo sapiens, UniProt P36888); assay: Kinase inhibition assay (Eurofins KinaseProfiler); format: biochemical; details: ATP at Km
T3 construct: purchased Eurofins (KinaseProfiler service)
T3 sequence (P36888 27-993): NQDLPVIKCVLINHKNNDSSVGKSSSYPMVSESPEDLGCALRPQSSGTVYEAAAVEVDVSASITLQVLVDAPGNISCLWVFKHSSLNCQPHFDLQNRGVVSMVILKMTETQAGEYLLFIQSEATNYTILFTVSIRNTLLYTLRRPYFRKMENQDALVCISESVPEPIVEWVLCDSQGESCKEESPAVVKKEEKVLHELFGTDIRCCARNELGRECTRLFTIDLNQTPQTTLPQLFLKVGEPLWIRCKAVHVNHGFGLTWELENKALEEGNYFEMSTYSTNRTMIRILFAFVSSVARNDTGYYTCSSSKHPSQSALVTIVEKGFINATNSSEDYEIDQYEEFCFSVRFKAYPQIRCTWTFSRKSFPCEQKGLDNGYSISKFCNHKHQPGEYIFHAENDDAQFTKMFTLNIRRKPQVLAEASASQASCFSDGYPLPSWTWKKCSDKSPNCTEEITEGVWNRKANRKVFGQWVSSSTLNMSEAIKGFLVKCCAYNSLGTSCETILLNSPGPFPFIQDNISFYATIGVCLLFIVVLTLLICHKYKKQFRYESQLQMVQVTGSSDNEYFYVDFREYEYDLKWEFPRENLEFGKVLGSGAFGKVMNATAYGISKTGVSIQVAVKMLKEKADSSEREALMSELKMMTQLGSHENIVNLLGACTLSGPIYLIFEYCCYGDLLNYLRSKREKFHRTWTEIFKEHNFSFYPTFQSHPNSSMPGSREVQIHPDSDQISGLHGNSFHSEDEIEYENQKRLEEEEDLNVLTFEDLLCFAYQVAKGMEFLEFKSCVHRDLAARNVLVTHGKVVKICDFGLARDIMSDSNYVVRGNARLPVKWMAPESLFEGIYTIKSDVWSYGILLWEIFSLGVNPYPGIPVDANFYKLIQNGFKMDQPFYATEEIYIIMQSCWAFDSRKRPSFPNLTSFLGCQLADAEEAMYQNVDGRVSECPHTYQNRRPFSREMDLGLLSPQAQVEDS
Description: as §3, §4, §5

FLT4 (VEGFR3) = target: T4, FLT4 (VEGFR3) (Homo sapiens, UniProt P35916); assay: Kinase inhibition assay (Eurofins KinaseProfiler); format: biochemical; details: ATP at Km
T4 construct: purchased Eurofins (KinaseProfiler service)
T4 sequence (P35916 25-1363): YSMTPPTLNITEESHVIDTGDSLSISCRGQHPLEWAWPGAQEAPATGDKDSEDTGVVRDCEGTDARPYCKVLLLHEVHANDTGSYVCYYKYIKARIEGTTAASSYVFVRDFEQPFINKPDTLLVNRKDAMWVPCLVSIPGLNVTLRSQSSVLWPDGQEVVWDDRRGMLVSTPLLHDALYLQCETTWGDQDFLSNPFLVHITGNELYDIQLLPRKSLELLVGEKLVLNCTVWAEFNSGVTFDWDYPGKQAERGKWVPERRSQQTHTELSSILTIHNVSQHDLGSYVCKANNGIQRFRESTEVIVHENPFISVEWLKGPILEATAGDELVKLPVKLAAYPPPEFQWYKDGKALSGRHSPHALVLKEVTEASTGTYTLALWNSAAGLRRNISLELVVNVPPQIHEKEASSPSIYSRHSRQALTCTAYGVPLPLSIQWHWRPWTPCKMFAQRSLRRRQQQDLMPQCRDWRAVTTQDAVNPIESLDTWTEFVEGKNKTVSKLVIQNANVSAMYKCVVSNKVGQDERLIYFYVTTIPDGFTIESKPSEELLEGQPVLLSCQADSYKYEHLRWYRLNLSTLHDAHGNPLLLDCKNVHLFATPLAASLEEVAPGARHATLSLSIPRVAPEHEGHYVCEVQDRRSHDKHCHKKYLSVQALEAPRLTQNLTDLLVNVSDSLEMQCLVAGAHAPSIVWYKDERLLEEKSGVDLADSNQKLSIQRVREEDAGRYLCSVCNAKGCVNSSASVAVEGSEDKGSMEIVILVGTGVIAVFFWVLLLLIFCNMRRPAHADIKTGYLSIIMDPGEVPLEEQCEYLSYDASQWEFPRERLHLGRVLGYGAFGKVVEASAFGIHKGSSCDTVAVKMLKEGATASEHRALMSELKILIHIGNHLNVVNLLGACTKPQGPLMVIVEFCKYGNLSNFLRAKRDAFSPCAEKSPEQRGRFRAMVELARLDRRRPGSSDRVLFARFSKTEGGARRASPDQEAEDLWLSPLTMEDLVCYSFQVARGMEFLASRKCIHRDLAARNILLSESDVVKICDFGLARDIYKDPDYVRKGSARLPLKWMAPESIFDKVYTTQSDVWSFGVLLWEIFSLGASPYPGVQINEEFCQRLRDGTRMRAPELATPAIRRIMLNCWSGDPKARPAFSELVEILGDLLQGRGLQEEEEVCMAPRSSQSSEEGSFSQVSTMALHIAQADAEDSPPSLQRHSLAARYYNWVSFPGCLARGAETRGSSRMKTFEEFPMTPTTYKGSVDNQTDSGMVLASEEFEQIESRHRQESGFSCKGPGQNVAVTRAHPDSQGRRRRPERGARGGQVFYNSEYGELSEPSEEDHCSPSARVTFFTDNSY
Description: as §3, §4, §5

CC(C)n1nnc2ccc(-c3nc(Nc4ccc(CNC(=O)C5(C(=O)Nc6ccccc6)CC5)cc4)ncc3F)cc21 [12O]
IC50 (SKOV3): 29 nM
IC50 (HeLa): 24 nM
IC50 (4T1): 68 nM
inhibition at 1 µM (Abl(h)): 31%
inhibition at 1 µM (FLT1 (VEGFR1)): 50%
inhibition at 1 µM (FLT3(h); 1 µM): 98%
IC50 (FLT3(h)): 24 nM
inhibition at 1 µM (FLT4 (VEGFR3); 1 µM): 95%
IC50 (FLT4 (VEGFR3)): 68 nM
